Measurements published in ChEMBL document CHEMBL1201862, “PubChem BioAssay data set” (2004).
Calls of active or inactive are those of the source.

Assays:
Cytochrome P450 2C9 = Cytochrome P450 2C9 (Homo sapiens, UniProt P11712); details: Potency
[1] = target: Acyl-homoserine lactone acylase PvdQ (Pseudomonas aeruginosa (strain LESB58), UniProt Q9I194); assay: PvdQ acylase enzyme activity blockers – biochemical, fluorescence, plate reader and imaging, cherry-picks, dose response (AID 493231)
Aspartyl aminopeptidase = target: T1, Aspartyl aminopeptidase (Plasmodium falciparum 3D7, UniProt Q8I2J3)
T1 sequence (Q8I2J3 whole entry): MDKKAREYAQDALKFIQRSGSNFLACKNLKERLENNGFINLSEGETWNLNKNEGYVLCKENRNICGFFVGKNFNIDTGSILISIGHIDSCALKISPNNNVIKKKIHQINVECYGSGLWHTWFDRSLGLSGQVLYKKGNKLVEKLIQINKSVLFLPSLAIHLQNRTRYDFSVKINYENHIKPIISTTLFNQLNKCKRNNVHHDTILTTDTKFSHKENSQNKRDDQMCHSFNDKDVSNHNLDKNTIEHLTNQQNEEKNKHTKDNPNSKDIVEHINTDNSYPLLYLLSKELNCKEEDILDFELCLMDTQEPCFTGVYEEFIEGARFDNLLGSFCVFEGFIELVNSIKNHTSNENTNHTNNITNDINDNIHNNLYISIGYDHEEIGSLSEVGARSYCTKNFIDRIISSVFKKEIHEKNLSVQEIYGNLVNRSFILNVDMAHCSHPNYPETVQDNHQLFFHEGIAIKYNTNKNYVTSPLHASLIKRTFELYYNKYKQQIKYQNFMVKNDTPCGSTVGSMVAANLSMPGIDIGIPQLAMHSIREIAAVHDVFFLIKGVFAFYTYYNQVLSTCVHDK

Procathepsin L = Procathepsin L (Homo sapiens, UniProt P07711)
[2] = target: Lysosomal acid glucosylceramidase (Homo sapiens, UniProt P04062); assay: Dose response cell-based high throughput screening assay to identify enhancers of beta-glucosidase activity. [Related pubchem assays: 784 ]; type: functional
[3] = target: Melanin-concentrating hormone receptor 1 (Homo sapiens, UniProt Q99705); assay: Fluorescence-based counterscreen for antagonists of the G-protein coupled receptor 7 (GPR7): cell-based high throughput dose response assay to identify antagonists of the melanin-concentrating hormone receptor 1 (MCHR1).; type: functional
[4] = target: T2, Short transient receptor potential channel 4 (Mus musculus, UniProt Q9QUQ5); assay: block of DAMGO-driven TRPC4 calcium entry – cell-based, HEK293 TRPC4/mu-opioid, Fluo-4 calcium, dose response (AID 434942); type: functional;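 note: potency of inhibitors blocking the TRPC4 calcium response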
T2 sequence (Q9QUQ5 whole entry): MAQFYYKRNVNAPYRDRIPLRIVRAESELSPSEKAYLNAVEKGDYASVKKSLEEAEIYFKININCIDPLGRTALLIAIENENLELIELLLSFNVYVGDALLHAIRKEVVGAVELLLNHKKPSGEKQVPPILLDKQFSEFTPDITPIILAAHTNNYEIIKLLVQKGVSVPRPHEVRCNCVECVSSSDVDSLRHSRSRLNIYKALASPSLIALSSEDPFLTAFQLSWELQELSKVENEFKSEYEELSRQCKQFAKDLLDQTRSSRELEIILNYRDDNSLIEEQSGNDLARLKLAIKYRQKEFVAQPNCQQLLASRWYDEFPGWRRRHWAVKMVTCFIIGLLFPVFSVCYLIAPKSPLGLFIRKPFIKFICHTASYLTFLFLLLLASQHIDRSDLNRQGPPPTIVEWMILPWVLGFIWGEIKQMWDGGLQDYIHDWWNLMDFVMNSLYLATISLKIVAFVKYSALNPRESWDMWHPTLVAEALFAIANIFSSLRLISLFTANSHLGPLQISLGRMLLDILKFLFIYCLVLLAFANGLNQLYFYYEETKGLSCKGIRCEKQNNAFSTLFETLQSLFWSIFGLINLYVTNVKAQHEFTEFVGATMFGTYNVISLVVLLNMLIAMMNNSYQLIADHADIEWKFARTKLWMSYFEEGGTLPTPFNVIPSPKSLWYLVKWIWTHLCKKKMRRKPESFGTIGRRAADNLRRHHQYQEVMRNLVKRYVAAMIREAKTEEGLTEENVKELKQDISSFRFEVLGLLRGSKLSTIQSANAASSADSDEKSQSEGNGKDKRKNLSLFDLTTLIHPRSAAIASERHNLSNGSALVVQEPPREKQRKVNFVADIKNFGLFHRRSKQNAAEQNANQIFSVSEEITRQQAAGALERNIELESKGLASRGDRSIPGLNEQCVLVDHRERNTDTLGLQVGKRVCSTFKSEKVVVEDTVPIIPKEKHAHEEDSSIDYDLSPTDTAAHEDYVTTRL

Cytochrome P450 2C19 = Cytochrome P450 2C19 (Homo sapiens, UniProt P33261); assay: qHTS Assay for Inhibitors and Substrates of Cytochrome P450 2C19. [Related pubchem assays: 410 ]; type: ADME; details: read-out: Potency
[5] = target: Neurotensin receptor type 1 (Homo sapiens, UniProt P30989); type: functional;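 note: Image-based confirmatory dose-response assay measuring agonist activity at NTR1; NTR1-expressing U2OS osteosarcoma cells imaged for beta-arrestin GFP spot formation; agonist potency where compounds increase beta-arrestin recruitment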
[6] = target: T3, Low molecular weight phosphotyrosine protein phosphatase (Homo sapiens, UniProt P24666); type: functional; details: read-out: IC50_Mean;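 note: Dose-response confirmation assay measuring inhibition of LMPTP enzyme activity by fluorescence intensity read-out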
T3 sequence (P24666 whole entry): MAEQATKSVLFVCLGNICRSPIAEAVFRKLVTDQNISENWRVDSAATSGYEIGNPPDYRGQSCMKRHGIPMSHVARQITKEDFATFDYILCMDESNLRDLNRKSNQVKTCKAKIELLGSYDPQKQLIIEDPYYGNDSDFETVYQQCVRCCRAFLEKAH

Large T antigen = Large T antigen (Simian virus 40, UniProt P03070); type: functional, Betapolyomavirus macacae;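 note: Confirmatory-stage PubChem screen for compounds that inhibit SV40 T antigen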
Hexokinase = Hexokinase (Trypanosoma brucei, UniProt Q38C41); assay: Confirmation assay for inhibitors of Trypanosoma brucei hexokinase 1-Analogue-first series. [Related pubchem assays (depositor defined):AID1430, AID1632, AID2516, AID2560, AID2579, AID2600, AID449725, AID492951]; type: functional
[7] = Luminescence Cell-Based Dose Retest to Confirm Inhibitors of Cancer Stem Cells. [Related pubchem assays (depositor defined):AID2717, AID2721]; type: functional; details: Homo sapiens
[8] = target: T4, Microphthalmia-associated transcription factor (Homo sapiens, UniProt O75030); assay: reducers of TRPM1 reporter luminescence, concentration series – cell-based, SK-MEL-5, cherry-picked, set 3, MITF inhibitor project, dose response (AID 493073); type: functional;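 note: SK-MEL-5 melanoma cells with luciferase driven by the MITF target TRPM1 promoter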
T4 sequence (O75030 whole entry): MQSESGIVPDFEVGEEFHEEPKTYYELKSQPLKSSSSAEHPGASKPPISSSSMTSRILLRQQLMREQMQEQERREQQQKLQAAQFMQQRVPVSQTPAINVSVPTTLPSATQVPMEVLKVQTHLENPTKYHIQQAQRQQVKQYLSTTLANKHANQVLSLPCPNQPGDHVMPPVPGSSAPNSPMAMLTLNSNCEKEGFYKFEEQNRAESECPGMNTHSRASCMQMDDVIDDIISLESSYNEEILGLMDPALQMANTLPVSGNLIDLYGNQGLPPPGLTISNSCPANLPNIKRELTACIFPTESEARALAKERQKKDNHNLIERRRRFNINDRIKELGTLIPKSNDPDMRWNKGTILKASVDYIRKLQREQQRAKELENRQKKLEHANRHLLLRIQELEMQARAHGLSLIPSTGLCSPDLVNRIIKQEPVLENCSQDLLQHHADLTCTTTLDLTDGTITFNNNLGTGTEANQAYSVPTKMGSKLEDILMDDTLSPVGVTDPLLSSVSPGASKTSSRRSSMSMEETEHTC

Sequence of Melanin-concentrating hormone receptor 1 (Q99705 whole entry): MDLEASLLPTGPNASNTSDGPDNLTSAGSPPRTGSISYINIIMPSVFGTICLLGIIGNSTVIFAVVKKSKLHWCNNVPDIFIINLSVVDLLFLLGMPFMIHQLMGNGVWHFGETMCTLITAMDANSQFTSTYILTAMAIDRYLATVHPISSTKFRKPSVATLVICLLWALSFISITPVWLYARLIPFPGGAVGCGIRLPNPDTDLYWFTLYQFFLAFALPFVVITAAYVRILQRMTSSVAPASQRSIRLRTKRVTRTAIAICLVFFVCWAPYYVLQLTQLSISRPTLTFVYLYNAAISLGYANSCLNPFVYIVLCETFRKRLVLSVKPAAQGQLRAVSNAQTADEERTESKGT
Sequence of Acyl-homoserine lactone acylase PvdQ (Q9I194 24-193 limits assumed): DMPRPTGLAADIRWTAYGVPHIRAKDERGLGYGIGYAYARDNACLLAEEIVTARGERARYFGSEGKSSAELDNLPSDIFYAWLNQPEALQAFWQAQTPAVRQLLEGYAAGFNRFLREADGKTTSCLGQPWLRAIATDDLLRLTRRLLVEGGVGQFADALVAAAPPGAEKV
Sequence of Acyl-homoserine lactone acylase PvdQ (Q9I194 217-762 limits assumed): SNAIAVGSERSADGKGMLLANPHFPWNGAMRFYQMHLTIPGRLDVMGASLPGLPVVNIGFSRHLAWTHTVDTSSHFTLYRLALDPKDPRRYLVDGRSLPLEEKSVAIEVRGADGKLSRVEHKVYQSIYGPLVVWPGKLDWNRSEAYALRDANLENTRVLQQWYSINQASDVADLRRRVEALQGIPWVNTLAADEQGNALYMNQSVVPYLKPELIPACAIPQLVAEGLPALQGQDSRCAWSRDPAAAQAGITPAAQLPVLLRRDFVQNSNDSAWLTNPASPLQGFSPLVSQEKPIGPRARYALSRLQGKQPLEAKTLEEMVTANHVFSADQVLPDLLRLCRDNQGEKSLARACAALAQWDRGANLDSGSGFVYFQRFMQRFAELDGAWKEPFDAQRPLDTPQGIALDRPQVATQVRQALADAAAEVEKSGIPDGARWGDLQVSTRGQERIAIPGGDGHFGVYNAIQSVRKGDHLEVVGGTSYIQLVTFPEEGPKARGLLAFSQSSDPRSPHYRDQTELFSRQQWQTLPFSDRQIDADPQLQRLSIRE
Sequence of Procathepsin L (P07711 whole entry): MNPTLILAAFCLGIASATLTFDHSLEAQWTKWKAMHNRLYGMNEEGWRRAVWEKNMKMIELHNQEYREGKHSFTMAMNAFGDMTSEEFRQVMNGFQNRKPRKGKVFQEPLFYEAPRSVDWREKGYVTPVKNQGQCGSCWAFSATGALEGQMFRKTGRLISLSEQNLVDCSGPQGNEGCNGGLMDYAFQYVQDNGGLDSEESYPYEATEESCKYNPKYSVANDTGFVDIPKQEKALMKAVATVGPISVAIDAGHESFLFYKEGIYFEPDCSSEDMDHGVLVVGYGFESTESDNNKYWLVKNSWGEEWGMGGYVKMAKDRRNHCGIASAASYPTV
Sequence of Neurotensin receptor type 1 (P30989 whole entry): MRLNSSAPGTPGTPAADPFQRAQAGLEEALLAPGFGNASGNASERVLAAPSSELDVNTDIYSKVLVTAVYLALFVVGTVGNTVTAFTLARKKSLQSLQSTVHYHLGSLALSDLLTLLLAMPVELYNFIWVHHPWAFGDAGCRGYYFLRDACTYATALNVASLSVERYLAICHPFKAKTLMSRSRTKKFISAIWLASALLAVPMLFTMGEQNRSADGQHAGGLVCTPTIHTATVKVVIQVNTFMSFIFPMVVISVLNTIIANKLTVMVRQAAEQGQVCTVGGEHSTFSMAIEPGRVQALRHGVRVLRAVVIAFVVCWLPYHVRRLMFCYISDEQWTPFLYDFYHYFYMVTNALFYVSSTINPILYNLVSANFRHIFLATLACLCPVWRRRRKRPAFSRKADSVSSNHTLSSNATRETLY
Sequence of Cytochrome P450 2C9 (P11712 whole entry): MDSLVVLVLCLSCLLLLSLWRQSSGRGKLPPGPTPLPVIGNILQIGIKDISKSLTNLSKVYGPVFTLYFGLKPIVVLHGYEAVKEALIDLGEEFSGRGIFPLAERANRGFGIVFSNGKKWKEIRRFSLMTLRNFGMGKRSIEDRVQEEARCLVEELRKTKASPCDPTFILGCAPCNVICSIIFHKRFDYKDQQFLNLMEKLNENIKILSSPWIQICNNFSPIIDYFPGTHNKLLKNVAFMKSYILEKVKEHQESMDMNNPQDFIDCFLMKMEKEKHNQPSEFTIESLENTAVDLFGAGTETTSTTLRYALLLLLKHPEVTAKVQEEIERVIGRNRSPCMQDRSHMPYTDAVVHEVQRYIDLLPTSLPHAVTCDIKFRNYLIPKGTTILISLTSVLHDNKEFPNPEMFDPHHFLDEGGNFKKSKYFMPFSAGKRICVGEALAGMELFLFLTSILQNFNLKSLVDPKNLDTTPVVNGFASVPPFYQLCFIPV
Sequence of Lysosomal acid glucosylceramidase (P04062 whole entry): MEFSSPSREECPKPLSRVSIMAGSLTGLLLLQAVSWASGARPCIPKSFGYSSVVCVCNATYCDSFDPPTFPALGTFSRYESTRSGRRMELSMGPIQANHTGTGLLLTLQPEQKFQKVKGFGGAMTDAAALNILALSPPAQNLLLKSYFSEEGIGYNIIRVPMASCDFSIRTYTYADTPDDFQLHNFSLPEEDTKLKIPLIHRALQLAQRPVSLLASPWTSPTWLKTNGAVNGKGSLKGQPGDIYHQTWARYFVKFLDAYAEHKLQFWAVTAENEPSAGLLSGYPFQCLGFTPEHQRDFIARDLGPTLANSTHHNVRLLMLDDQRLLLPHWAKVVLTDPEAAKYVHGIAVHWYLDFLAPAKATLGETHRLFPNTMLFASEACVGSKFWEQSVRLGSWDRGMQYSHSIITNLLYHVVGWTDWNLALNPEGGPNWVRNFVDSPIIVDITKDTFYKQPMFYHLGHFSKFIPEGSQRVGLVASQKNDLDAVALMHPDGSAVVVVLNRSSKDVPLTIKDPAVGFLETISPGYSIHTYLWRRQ
Sequence of Hexokinase (Q38C41 whole entry): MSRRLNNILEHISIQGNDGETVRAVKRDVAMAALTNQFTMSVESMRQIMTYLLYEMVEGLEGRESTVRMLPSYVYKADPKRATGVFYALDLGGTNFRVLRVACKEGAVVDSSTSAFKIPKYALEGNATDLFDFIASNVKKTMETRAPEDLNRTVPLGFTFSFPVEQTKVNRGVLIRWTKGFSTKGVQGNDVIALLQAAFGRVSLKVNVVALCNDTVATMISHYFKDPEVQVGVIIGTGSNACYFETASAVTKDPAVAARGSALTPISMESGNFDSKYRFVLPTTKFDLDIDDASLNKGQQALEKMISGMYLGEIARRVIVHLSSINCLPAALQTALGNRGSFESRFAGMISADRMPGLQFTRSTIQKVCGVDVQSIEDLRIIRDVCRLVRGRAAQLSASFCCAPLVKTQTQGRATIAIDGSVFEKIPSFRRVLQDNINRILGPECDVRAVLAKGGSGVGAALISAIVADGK
Sequence of Cytochrome P450 2C19 (P33261 whole entry): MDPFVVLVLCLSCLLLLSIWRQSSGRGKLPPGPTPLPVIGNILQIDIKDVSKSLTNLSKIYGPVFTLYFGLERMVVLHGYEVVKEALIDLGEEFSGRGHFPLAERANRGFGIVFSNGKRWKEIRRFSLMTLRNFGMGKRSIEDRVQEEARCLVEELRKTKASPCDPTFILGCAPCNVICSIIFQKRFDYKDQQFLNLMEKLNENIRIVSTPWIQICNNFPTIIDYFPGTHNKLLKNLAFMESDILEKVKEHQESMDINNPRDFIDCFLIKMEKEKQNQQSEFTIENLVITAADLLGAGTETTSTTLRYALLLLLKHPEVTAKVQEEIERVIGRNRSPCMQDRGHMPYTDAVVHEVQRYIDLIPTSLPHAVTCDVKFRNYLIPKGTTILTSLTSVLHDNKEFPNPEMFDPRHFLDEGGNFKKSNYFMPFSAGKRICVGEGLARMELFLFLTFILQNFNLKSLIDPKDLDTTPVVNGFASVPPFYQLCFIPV
Sequence of Large T antigen (P03070 whole entry): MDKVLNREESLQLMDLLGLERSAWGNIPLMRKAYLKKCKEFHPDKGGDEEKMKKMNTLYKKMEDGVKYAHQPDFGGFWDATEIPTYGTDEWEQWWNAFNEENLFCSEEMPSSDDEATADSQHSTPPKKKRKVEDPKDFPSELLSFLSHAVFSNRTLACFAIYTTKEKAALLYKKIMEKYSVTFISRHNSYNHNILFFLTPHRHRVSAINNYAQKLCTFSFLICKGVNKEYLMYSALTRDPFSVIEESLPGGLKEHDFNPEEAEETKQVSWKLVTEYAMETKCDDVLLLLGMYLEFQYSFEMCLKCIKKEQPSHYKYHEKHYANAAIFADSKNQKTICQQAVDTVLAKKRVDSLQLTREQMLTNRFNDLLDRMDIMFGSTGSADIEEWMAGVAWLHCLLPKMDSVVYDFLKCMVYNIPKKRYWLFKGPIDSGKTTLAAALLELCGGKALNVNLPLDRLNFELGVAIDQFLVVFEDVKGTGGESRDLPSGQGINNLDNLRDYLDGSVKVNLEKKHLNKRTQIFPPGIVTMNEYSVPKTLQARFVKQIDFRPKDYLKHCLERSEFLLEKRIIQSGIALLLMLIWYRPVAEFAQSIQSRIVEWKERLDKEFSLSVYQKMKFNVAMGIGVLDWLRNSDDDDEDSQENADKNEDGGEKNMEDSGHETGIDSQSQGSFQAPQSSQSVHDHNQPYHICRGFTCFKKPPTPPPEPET

CCOC(c1cc(OC)cc([N+](=O)[O-])c1OC)C(C)C(OC)[C@@H](C)/C=C/CC(=O)OC (stereo partly drawn)
AC50 (Cytochrome P450 2C9): 2.51 µM (inconclusive)

CC(C)Oc1ccc(CC2CCC(=O)N(C)C2=O)cc1 (stereo not drawn)
AC50 [1]: 26.2 µM (active)

O=C(CSc1nn(-c2ccccc2)c(=S)s1)Nn1cnnc1
IC50 (Aspartyl aminopeptidase): 1.61 µM (active)
IC50 (Procathepsin L): > 59.6 µM (not active)

CCOc1ccccc1C1C(C(=O)Nc2ccccc2OC)=C(C)Nc2nnnn21 (stereo not drawn)
EC50 [2]: > 10 µM (not active)

O=C(CSc1nnc[nH]1)Nc1nc(-c2ccccc2)ns1
IC50 (Aspartyl aminopeptidase): 0.442 µM (active)
IC50 (Procathepsin L): > 59.6 µM (not active)

COC(=O)CN1CCN(C(=O)c2ccc(F)cc2)c2ccccc2C1
EC50 [2]: > 50 µM (not active)

COc1ccccc1C1CC(c2ccc(Cl)cc2)N=C2N=CNN21 (stereo not drawn)
IC50 [3]: 24.5 µM (not active)

CC(C)Cc1nc(N2CCOCC2)c(C#N)c2c1CCC2
EC50 [4]: 6.68 µM (active)

C=C(C)C(O)/C=C/c1ccc(OC)cc1 (stereo not drawn)
AC50 (Cytochrome P450 2C19): 0.501 µM (inconclusive)
AC50 (Cytochrome P450 2C9): 2.51 µM (inconclusive)

COc1ccc(-c2csc(N3CCN(c4cc(C)nc5ccccc45)CC3)n2)cc1OC
EC50 [5]: 21.4 µM (inactive)
IC50 [6]: 11.8 µM (active)

Cc1cc(C(=O)N2CCC(Cc3ccccc3)CC2)ccc1[N+](=O)[O-]
IC50 [3]: 16.6 µM (not active)

COc1ccc(-c2ccc(OC(=O)NC3CCS(=O)(=O)C3)cc2)cc1 (stereo not drawn)
IC50 (Large T antigen): 9.45 µM (active)
AC50 [1]: 30.7 µM (active)

O=C(Nc1cc(Cl)ccc1C(=O)O)c1ccccc1
IC50 (Hexokinase): > 25 µM (inactive)

O=c1c2cc(F)ccc2sn1-c1ccc(Cl)cc1
IC50 (Hexokinase): 3.01 µM (active)

O=C(/C=C\c1ccccc1)NCC(=O)N/N=C/c1ccc(O)cc1O
AC50 [7]: 11.1 µM (active)
EC50 [5]: 23.1 µM (inactive)
AC50 [8]: 7.99 µM (active)

CCOc1ccc(Br)cc1/C=N/O
EC50 [4]: 5.96 µM (active)
